Consider 21 compounds from patent US20090099195A1 (ASTRAZENECA AB, priority 2007, published 2009).

Usually IC50 stands for the point on the concentration scale where inhibition reaches its midpoint.

The target in the experiment is T1, hP2X3 (human Purinergic P2X receptors subtype 3), clone B (Homo sapiens, UniProt P56373).
T1 sequence (P56373 1-397): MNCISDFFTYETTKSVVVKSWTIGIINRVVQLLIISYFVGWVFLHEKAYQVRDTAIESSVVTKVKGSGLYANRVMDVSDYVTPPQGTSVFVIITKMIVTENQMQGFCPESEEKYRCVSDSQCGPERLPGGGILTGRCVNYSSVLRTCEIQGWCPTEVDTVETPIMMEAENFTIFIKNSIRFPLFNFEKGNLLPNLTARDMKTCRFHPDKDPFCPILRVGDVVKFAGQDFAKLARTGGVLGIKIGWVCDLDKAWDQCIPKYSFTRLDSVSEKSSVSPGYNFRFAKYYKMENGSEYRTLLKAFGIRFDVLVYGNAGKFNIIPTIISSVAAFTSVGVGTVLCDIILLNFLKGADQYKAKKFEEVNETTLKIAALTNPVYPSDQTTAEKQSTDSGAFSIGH
Nature of the experiment: hP2X3 FLIPR calcium (Fluo-4) antagonist assay, clone B. The settings on record: Human P2X3 FLIPR Clone B IC50 (nM), RLE cells expressing hP2X3 clone B (NM_002559); agonist 500 nM α,β-methylene-ATP.
Regarding `CC(=O)N1CCN(c2nc(NC(C(=O)O)c3ccc(C(F)(F)F)cc3)c3c(n2)C(=O)N(C(C)C)C3)CC1` (stereo not drawn) [Example 35, {[2-(4-acetylpiperazin-1-yl)-6-isopropyl-7-oxo-6,7-dihydro-5H-pyrrolo[3,4-d]pyrimidin-4-yl]amino}[4-(trifluoromethyl)phenyl]acetic acid], the IC50 was 1200 nM.
Turning to `CC(=O)N1CCN(c2nc(NCc3nc(-c4ccccc4)no3)c3c(n2)C(=O)N(C(C)C)C3)CC1` [Example 145, 4-(4-acetylpiperazin-1-yl)-2-[(3-phenyl-1,2,4-oxadiazol-5-yl)methylamino]-8-propan-2-yl-3,5,8-triazabicyclo[4.3.0]nona-1,3,5-trien-7-one], the IC50 stood at 3200 nM.
Consider `CC(C)CN1Cc2c(NC(c3ccccc3)c3ccccc3)nc(N3CCOCC3)nc2C1=O` [Example 73, 4-(Benzhydryl-amino)-6-isobutyl-2-morpholin-4-yl-5,6-dihydro-pyrrolo[3,4-d]pyrimidin-7-one], for which the half-inhibitory concentration (IC50) was determined as 3800 nM.
Next, `CCN(Nc1nc(N2CCN(C(C)=O)CC2)nc2c1CN(C(C)C)C2=O)c1ccc(C)cc1` [Example 39, 2-(4-acetylpiperazin-1-yl)-4-[2-ethyl-2-(4-methylphenyl)hydrazino]-6-isopropyl-5,6-dihydro-7H-pyrrolo[3,4-d]pyrimidin-7-one]: 10000 nM.
As to `CCN1Cc2c(NC(C)(C)Cc3ccc(F)cc3)nc(N3CCN(C(C)=O)CC3)nc2C1=O` [Example 118, 2-(4-acetylpiperazin-1-yl)-6-ethyl-4-{[2-(4-fluorophenyl)-1,1-dimethylethyl]amino}-5,6-dihydro-7H-pyrrolo[3,4-d]pyrimidin-7-one], the concentration for half-maximal inhibition (IC50) is 1100 nM.
Turning to `CCN1CCN(c2nc(NC(c3ccccc3)c3ccccc3)c3c(n2)C(=O)N(C(C)C)C3)CC1` [Example 78, 4-(Benzhydryl-amino)-2-(4-ethyl-piperazin-1-yl)-6-isopropyl-5,6-dihydro-pyrrolo[3,4-d]pyrimidin-7-one], the concentration for half-maximal inhibition (IC50) was 400 nM.
Regarding `CC(=O)N1CCN(c2nc(NC3CCN(c4cccc(C)c4)C3)c3c(n2)C(=O)N(C(C)C)C3)CC1` (stereo not drawn) [Example 224, 2-(4-acetylpiperazin-1-yl)-6-isopropyl-4-(1-m-tolylpyrrolidin-3-ylamino)-5H-pyrrolo[3,4-d]pyrimidin-7(6H)-one], the IC50 came out at 4100 nM.
Consider `COCCNc1nc2c(c(N3CCCC3Cc3ccc(Cl)cc3)n1)CN(C(C)C)C2=O` (stereo not drawn) [Example 44, 4-[2-(4-chlorobenzyl)pyrrolidin-1-yl]-6-isopropyl-2-[(2-methoxyethyl)amino]-5,6-dihydro-7H-pyrrolo[3,4-d]pyrimidin-7-one], for which the half-maximal inhibitory concentration (IC50) was 9600 nM.
Turning to `CC(=O)N1CCN(c2nc3c(c(N(Cc4ccccc4)CC4CCCO4)n2)CN(C(C)C)C3=O)CC1` (stereo not drawn) [Example 3, 2-(4-acetylpiperazin-1-yl)-4-[benzyl(tetrahydrofuran-2-ylmethyl)amino]-6-isopropyl-5,6-dihydro-7H-pyrrolo[3,4-d]pyrimidin-7-one], the 50% inhibitory concentration (IC50) worked out at 4600 nM.
With `CC(=O)N1CCN(c2nc(NC(C)(C)Cc3cccc(C)c3)c3c(n2)C(=O)N(C(C)C)C3)CC1` [Example 333, 2-(4-acetylpiperazin-1-yl)-6-isopropyl-4-(2-methyl-1-m-tolylpropan-2-ylamino)-5H-pyrrolo[3,4-d]pyrimidin-7(6H)-one], the 50% inhibitory concentration (IC50) worked out at 830 nM.
With `CCOc1ccc([C@@H](C)Nc2nc(N3CCN(C(C)=O)CC3)nc3c2CN(C(C)C)C3=O)cc1C` [Example 167, (R)-2-(4-acetylpiperazin-1-yl)-4-(1-(4-ethoxy-3-methylphenyl)ethylamino)-6-isopropyl-5H-pyrrolo[3,4-d]pyrimidin-7(6H)-one] the figure was 65 nM; with `CC(C)N1Cc2c(NC(C)(C)Cc3ccc(Cl)cc3)nc(N3CCNC(=O)CC3)nc2C1=O` [Example 68, 4-{[2-(4-chlorophenyl)-1,1-dimethylethyl]amino}-6-isopropyl-2-(5-oxo-1,4-diazepan-1-yl)-5,6-dihydro-7H-pyrrolo[3,4-d]pyrimidin-7-one], 350 nM.
On to `CCOc1ccc([C@@H](C)Nc2nc(N3CCN(C(C)=O)CC3)nc3c2CN(C(C)C)C3=O)c(C)c1` [Example 168, (R)-2-(4-acetylpiperazin-1-yl)-4-(1-(4-ethoxy-2-methylphenyl)ethylamino)-6-isopropyl-5H-pyrrolo[3,4-d]pyrimidin-7(6H)-one], for which the IC50 was 80 nM.
With `Cc1ccc(C(Nc2nc(N3CCN(C(C)C)CC3)nc3c2CN(C(C)C)C3=O)c2ccccc2)cc1` (stereo not drawn) [Example 102, 2-(4-isopropyl-piperazin-1-yl)-6-isopropyl-4-[(phenyl-p-tolyl-methyl)-amino]-5,6-dihydro-pyrrolo[3,4-d]-pyrimidin-7-one], the IC50 was determined as 200 nM.
With `CC(=O)N1CCN(c2nc(N[C@H](C)c3ccccc3C(F)(F)F)c3c(n2)C(=O)N(C(C)C)C3)CC1` [Example 226, (R)-2-(4-acetylpiperazin-1-yl)-6-isopropyl-4-(1-(2-(trifluoromethyl)phenyl)ethylamino)-5H-pyrrolo[3,4-d]pyrimidin-7(6H)-one], the IC50 was found to be 4400 nM.
Regarding `COc1ccc(C(Nc2nc(N3CCN(C(C)=O)CC3)nc3c2CN(C(C)C)C3=O)c2ccccc2)cc1` (stereo not drawn) [Example 103, 2-(4-Acetyl-piperazin-1-yl)-6-isopropyl-4-{[(4-methoxy-phenyl)-phenyl-methyl]-amino}-5,6-dihydro-pyrrolo[3,4-d]pyrimidin-7-one], the IC50 is 310 nM.
`CC(=O)N1CCN(c2nc(NC(C)C3COc4ccccc4O3)c3c(n2)C(=O)N(C(C)C)C3)CC1` (single isomer, unassigned) [Example 179, 2-(4-acetylpiperazin-1-yl)-4-(1-(2,3-dihydrobenzo[b][1,4]dioxin-2-yl)ethylamino)-6-isopropyl-5H-pyrrolo[3,4-d]pyrimidin-7(6H)-one]: the half-maximal inhibitory concentration (IC50) is 190 nM.
As to `CC(=O)N1CCN(c2nc(NC(C)(C)Cc3ccc(F)cc3)c3c(n2)C(=O)N(C2CCOCC2)C3)CC1` [Example 305, 3-(4-acetylpiperazin-1-yl)-5-[[1-(4-fluorophenyl)-2-methyl-propan-2-yl]amino]-8-(oxan-4-yl)-2,4,8-triazabicyclo[4.3.0]nona-1,3,5-trien-9-one], the half-maximal inhibitory concentration (IC50) was determined as 2400 nM.
With `CC(C)N1Cc2c(NC(C)(C)Cc3ccc(Cl)cc3)nc(N3CCN(C(=O)C4CC4)CC3)nc2C1=O` [Example 126, 4-{[2-(4-chlorophenyl)-1,1-dimethylethyl]amino}-2-[4-(cyclopropylcarbonyl)piperazin-1-yl]-6-isopropyl-5,6-dihydro-7H-pyrrolo[3,4-d]pyrimidin-7-one] the figure was 2300 nM.
Take `CC(=O)N1CCN(c2nc(NCc3ccc(C(C)C)cc3)c3c(n2)C(=O)N(C(C)C)C3)CC1` [Example 43, 2-(4-acetylpiperazin-1-yl)-6-isopropyl-4-[(4-isopropylbenzyl)amino]-5,6-dihydro-7H-pyrrolo[3,4-d]pyrimidin-7-one]: the IC50 worked out at 650 nM.
On to `CNCCNc1nc(NCC(c2ccccc2)c2ccccc2)c2c(n1)C(=O)N(C(C)C)C2` [Example 109, 4-(2,2-Diphenyl-ethylamino)-6-isopropyl-2-(2-methylamino-ethylamino)-5,6-dihydro-pyrrolo[3,4-d]pyrimidin-7-one], for which the IC50 was determined as 7200 nM.
